Consider 20 compounds from patent publication US8163793B2, “Proline derivatives” (Hoffman-La Roche Inc., priority 2009, dated 2012).

SMILES strings stand for the structures. Read-outs that look alike come from different tables or passages of the source.

Assay [1] has as its target Cathepsin S (UniProt P25774). Description: Cathepsin enzyme inhibition assay (fluorogenic peptide substrate Z-Val-Val-Arg-AMC), Cathepsin S. It is filed as biochemical, human and mouse. An outline of the steps: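 Compounds were combined with 1 nM human or mouse enzyme, and substrate then started the reaction. The buffer was potassium phosphate (100 mM, pH 6.5) containing EDTA-Na 5 mM, Triton X-100 0.001% and […] 5 mM.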

Assay [2] concerns the target Cat L (UniProt P07711). The assay can be described thus: Cathepsin enzyme inhibition assay (fluorogenic peptide substrate Z-Val-Val-Arg-AMC), Cathepsin L. It is filed as biochemical, human and mouse. An outline of the steps: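 Fluorogenic cleavage of Z-Val-Val-Arg-AMC (20 μM) by 1 nM Cat L was monitored at ex 360/em 465 nm for 20 min, the linear phase. The buffer was 100 mM potassium phosphate pH 6.5 with 5 mM EDTA and DTT. IC50 values were derived by standard methods, in μM.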

Setting [3] is: enzyme 1 nM, substrate 20 μM, pH 6.5; read-out: CatS IC50.
[4] abbreviates: enzyme 1 nM, substrate 20 μM, pH 6.5; read-out: CatL IC50.

As usually defined, the IC50 is the concentration that inhibits the measured activity by half. `Cc1cc(-c2ccc(S(=O)(=O)[C@@H]3C[C@@H](C(=O)NC4(C#N)CC4)N(C(=O)C4(C(F)(F)F)CC4)C3)c(C(F)(F)F)c2)ccn1` [Example 248, (2S,4R)-4-[4-(2-Methyl-pyridin-4-yl)-2-trifluoromethyl-benzenesulfonyl]-1-(1-trifluoromethyl-cyclopropanecarbonyl)-pyrrolidine-2-carboxylic acid (1-cyano-cyclopropyl)-amide]: the IC50 in assay [1] (read-out: CatS IC50; enzyme 1 nM, substrate 20 μM, pH 6.5) is 0.00055 µM; in assay [2] (read-out: CatL IC50; enzyme 1 nM, substrate 20 μM, pH 6.5), 54.7 µM.

For the compound `Cn1cc(-c2ccc(S(=O)(=O)[C@@H]3C[C@@H](C(=O)NC4(C#N)CC4)N(C(=O)C4(C)CC4)C3)c(C(F)(F)F)c2)cn1` [Example 249, (2S,4R)-1-(1-Methyl-cyclopropanecarbonyl)-4-[4-(1-methyl-1H-pyrazol-4-yl)-2-trifluoromethyl-benzenesulfonyl]-pyrrolidine-2-carboxylic acid (1-cyano-cyclopropyl)-amide], the values for the IC50 in assay [1] (setting [3]) and in assay [2] (setting [4]) were 0.000255 µM and 25.8 µM, respectively.

In the case of `N#CC1(NC(=O)[C@@H]2C[C@@H](S(=O)(=O)c3ccc(OCC(F)(F)F)cc3Cl)CN2C(=O)C(F)(F)c2ccccc2)CC1` [Example 251, (2S,4R)-4-[2-Chloro-4-(2,2,2-trifluoro-ethoxy)-benzenesulfonyl]-1-(2,2-difluoro-2-phenyl-acetyl)-pyrrolidine-2-carboxylic acid (1-cyano-cyclopropyl)-amide], the figures for the 50% inhibitory concentration (IC50) in assay [1] (setting [3]) and in assay [2] (setting [4]) were 0.00029 µM and 1.25 µM, respectively.

As for `N#CC1(NC(=O)[C@@H]2C[C@@H](S(=O)(=O)c3ccc(OCC(F)(F)F)cc3Cl)CN2C(=O)Oc2ccc(Cl)cc2)CC1` [Example 252, (2S,4R)-4-[2-Chloro-4-(2,2,2-trifluoro-ethoxy)-benzenesulfonyl]-2-(1-cyano-cyclopropylcarbamoyl)-pyrrolidine-1-carboxylic acid 4-chloro-phenyl ester], the values for the half-maximal inhibitory concentration (IC50) in assay [1] (setting [3]) and in assay [2] (setting [4]) were 0.00175 µM and at least 25 µM, respectively.

Turning to `Cc1cc(N2C[C@H](S(=O)(=O)c3ccccc3Cl)C[C@H]2C(=O)NC2(C#N)CC2)n(-c2ccc(C(F)(F)F)cc2)n1` [Example 253, (2S,4R)-4-(2-Chloro-benzenesulfonyl)-1-[5-methyl-2-(4-trifluoromethyl-phenyl)-2H-pyrazol-3-yl]-pyrrolidine-2-carboxylic acid (1-cyano-cyclopropyl)-amide], the IC50 is 0.0011 µM in assay [1] (setting [3]) and 1.38 µM in assay [2] (setting [4]).

`Cc1cc(N2C[C@H](S(=O)(=O)c3ccccc3Cl)C[C@H]2C(=O)NC2(C#N)CC2)n(-c2ccnc(Cl)c2)n1` [Example 254, (2S,4R)-4-(2-Chloro-benzenesulfonyl)-1-[2-(2-chloro-pyridin-4-yl)-5-methyl-2H-pyrazol-3-yl]-pyrrolidine-2-carboxylic acid (1-cyano-cyclopropyl)-amide]: the IC50 was 0.00083 µM in assay [1] (setting [3]) and 2.26 µM in assay [2] (setting [4]).

Turning to `N#CC1(NC(=O)[C@@H]2C[C@@H](S(=O)(=O)c3ccc(C4CC4)cc3C(F)(F)F)CN2C(=O)C2(C(F)(F)F)CC2)CC1` [Example 256, (2S,4R)-4-(4-Cyclopropyl-2-trifluoromethyl-benzenesulfonyl)-1-(1-trifluoromethyl-cyclopropanecarbonyl)-pyrrolidine-2-carboxylic acid (1-cyano-cyclopropyl)-amide], the 50% inhibitory concentration (IC50) in assay [1] (setting [3]) came to 0.00026 µM; in assay [2] (setting [4]) it was 45.7 µM.

Turning to `Cc1cc(-c2ccc(S(=O)(=O)[C@@H]3C[C@@H](C(=O)NC4(C#N)CC4)N(C(=O)C4(C)CC4)C3)c(C(F)(F)F)c2)ccn1` [Example 257, (2S,4R)-1-(1-M ethyl-cyclopropanecarbonyl)-4-[4-(2-methyl-pyridin-4-yl)-2-trifluoromethyl-benzenesulfonyl]-pyrrolidine-2-carboxylic acid (1-cyano-cyclopropyl)-amide], the IC50 was 0.000195 µM in assay [1] (setting [3]) and 48.2 µM in assay [2] (setting [4]).

Consider `CC1(C(=O)N2C[C@H](S(=O)(=O)c3ccc(-c4ccnc(Cl)c4)cc3C(F)(F)F)C[C@H]2C(=O)NC2(C#N)CC2)CC1` [Example 258, (2S,4R)-4-[4-(2-Chloro-pyridin-4-yl)-2-trifluoromethyl-benzenesulfonyl]-1-(1-methyl-cyclopropanecarbonyl)-pyrrolidine-2-carboxylic acid (1-cyano-cyclopropyl)-amide], for which the values for the IC50 in assay [1] (setting [3]) and in assay [2] (setting [4]) were 0.00019 µM and 58 µM, respectively.

Turning to `CC1(C(=O)N2C[C@H](S(=O)(=O)c3ccc(-c4ccc(F)cc4F)cc3C(F)(F)F)C[C@H]2C(=O)NC2(C#N)CC2)CC1` [Example 259, (2S,4R)-4-(2′,4′-Difluoro-3-trifluoromethyl-biphenyl-4-sulfonyl)-1-(1-methyl-cyclopropanecarbonyl)-pyrrolidine-2-carboxylic acid (1-cyano-cyclopropyl)-amide], the half-inhibitory concentration (IC50) in assay [1] (setting [3]) is 0.00019 µM; in assay [2] (setting [4]), 79.5 µM.

Take `CN1CCN(c2ccc(S(=O)(=O)[C@@H]3C[C@@H](C(=O)NC4(C#N)CC4)N(C(=O)C4(C(F)(F)F)CC4)C3)c(C(F)(F)F)c2)CC1` [Example 260, (2S,4R)-4-[4-(4-Methyl-piperazin-1-yl)-2-trifluoromethyl-benzenesulfonyl]-1-(1-trifluoromethyl-cyclopropanecarbonyl)-pyrrolidine-2-carboxylic acid (1-cyano-cyclopropyl)-amide]: the IC50 in assay [1] (setting [3]) is 0.000245 µM; in assay [2] (setting [4]), 16.5 µM.

For the compound `Cc1cc(N2C[C@H](S(=O)(=O)c3ccccc3)C[C@H]2C(=O)NC2(C#N)CC2)n(-c2ccc(C(F)(F)F)cc2)n1` [Example 261, (2S,4R)-4-Benzenesulfonyl-1-[5-methyl-2-(4-trifluoromethyl-phenyl)-2H-pyrazol-3-yl]-pyrrolidine-2-carboxylic acid (1-cyano-cyclopropyl)-amide], the concentration for half-maximal inhibition (IC50) in assay [1] (setting [3]) was 0.012 µM; in assay [2] (setting [4]), 27 µM.

For the compound `Cc1cc(N2C[C@H](S(=O)(=O)c3ccccc3)C[C@H]2C(=O)NC2(C#N)CC2)n(-c2ccnc(Cl)c2)n1` [Example 262, (2S,4R)-4-Benzenesulfonyl-1-[2-(2-chloro-pyridin-4-yl)-5-methyl-2H-pyrazol-3-yl]-pyrrolidine-2-carboxylic acid (1-cyano-cyclopropyl)-amide], the IC50 in assay [1] (setting [3]) was 0.0044 µM; in assay [2] (setting [4]), 28.7 µM.

With `CC(C)(C)OC(=O)N[C@H]1CC[C@H](CC(=O)N2C[C@H](S(=O)(=O)c3ccc(OCC(F)(F)F)cc3Cl)C[C@H]2C(=O)NC2(C#N)CC2)CC1` [Example 264, (4-{2-[(2S,4R)-4-[2-Chloro-4-(2,2,2-trifluoro-ethoxy)-benzenesulfonyl]-2-(1-cyano-cyclopropylcarbamoyl)-pyrrolidin-1-yl]-2-oxo-ethyl}-cyclohexyl)-carbamic Acid Tert-butyl ester], the figures for the IC50 in assay [1] (setting [3]) and in assay [2] (setting [4]) were 0.000495 µM and 8.38 µM, respectively.

In the case of `N#CC1(NC(=O)[C@@H]2C[C@@H](S(=O)(=O)c3ccc(OCC(F)(F)F)cc3Cl)CN2C(=O)C[C@H]2CC[C@H](N)CC2)CC1` [Example 265, (2S,4R)-1-[2-(4-Amino-cyclohexyl)-acetyl]-4-[2-chloro-4-(2,2,2-trifluoro-ethoxy)-benzenesulfonyl]-pyrrolidine-2-carboxylic acid (1-cyano-cyclopropyl)-amide], the IC50 in assay [1] (setting [3]) is 0.00135 µM; in assay [2] (setting [4]) it was 2.05 µM.

`Cc1cc(N2C[C@H](S(=O)(=O)c3ccc(F)cc3C(F)(F)F)C[C@H]2C(=O)NC2(C#N)CC2)n(-c2ccnc(Cl)c2)n1` [Example 266, (2S,4R)-1-[2-(2-Chloro-pyridin-4-yl)-5-methyl-2H-pyrazol-3-yl]-4-(4-fluoro-2-trifluoromethyl-benzenesulfonyl)-pyrrolidine-2-carboxylic acid (1-cyano-cyclopropyl)-amide]: the IC50 in assay [1] (setting [3]) came out at 0.0013 µM; in assay [2] (setting [4]), 22.1 µM.

For `Cc1cc(N2C[C@H](S(=O)(=O)c3ccc(F)cc3C(F)(F)F)C[C@H]2C(=O)NC2(C#N)CC2)n(-c2ccc(C(F)(F)F)cc2)n1` [Example 267, (2S,4R)-4-(4-Fluoro-2-trifluoromethyl-benzenesulfonyl)-1-[5-methyl-2-(4-trifluoromethyl-phenyl)-2H-pyrazol-3-yl]-pyrrolidine-2-carboxylic acid (1-cyano-cyclopropyl)-amide], the IC50 in assay [1] (setting [3]) amounted to 0.0023 µM; in assay [2] (setting [4]) it was 7.81 µM.

In the case of `Cc1cc(N2C[C@H](S(=O)(=O)c3ccccc3C(F)(F)F)C[C@H]2C(=O)NC2(C#N)CC2)n(C(C)C)n1` [Example 268, (2S,4R)-1-(2-Isopropyl-5-methyl-2H-pyrazol-3-yl)-4-(2-trifluoromethyl-benzenesulfonyl)-pyrrolidine-2-carboxylic acid (1-cyano-cyclopropyl)-amide], the IC50 in assay [1] (setting [3]) was 0.00235 µM; in assay [2] (setting [4]) it was 47.3 µM.

On to `Cc1cc(N2C[C@H](S(=O)(=O)c3ccccc3C(F)(F)F)C[C@H]2C(=O)NC2(C#N)CC2)n(CC(F)(F)F)n1` [Example 269, (2S,4R)-1-[5-Methyl-2-(2,2,2-trifluoro-ethyl)-2H-pyrazol-3-yl]-4-(2-trifluoromethyl-benzenesulfonyl)-pyrrolidine-2-carboxylic acid (1-cyano-cyclopropyl)-amide], for which the figures for the IC50 in assay [1] (setting [3]) and in assay [2] (setting [4]) were 0.0016 µM and 75.1 µM, respectively.

In the case of `CC1(C(=O)N2C[C@H](S(=O)(=O)c3ccc(Br)cc3C(F)(F)F)C[C@H]2C(=O)NC2(C#N)CC2)CC1` [Example 270, (2S,4R)-4-(4-Bromo-2-trifluoromethyl-benzenesulfonyl)-1-(1-methyl-cyclopropanecarbonyl)-pyrrolidine-2-carboxylic acid (1-cyano-cyclopropyl)-amide], the IC50 in assay [1] (setting [3]) is 0.000395 µM; in assay [2] (setting [4]), at least 25 µM.
